Measurements from patent US20210230203A1, “Amphiphilic Kanamycin Compositions and Methods” (priority 2020, published 2021).
Values after ≈ are worked out from the molar mass of the structure shown. Like-named read-outs stand apart in the source and are kept apart here.

Tests used:
L. prolificans = experiment: MIC against various species, CLSI M27 & M38 (Table 4); conditions: Lomentospora prolificans, read-out: Minimum inhibitory concentration 100%
B. dermatitidis = experiment: MIC against various B. dermatitidis isolates, CLSI M27 & M38; conditions: Blastomyces dermatitidis, RPMI 0.165M MOPS, 24-72 hours
[1] = system: Cryptococcus neoformans H99; experiment: MIC against fungal strains (Table 1); type: cell-based; conditions: Cryptococcus neoformans, H99, read-out: Minimum inhibitory concentration
P. variotil = experiment: MIC against various species, CLSI M27 & M38 (Table 4); type: cell-based, Paecilomyces variotii; conditions: Paecilomyces variotii, P. variotil QC, RPMI 0.165M MOPS, 24-72 hours, read-out: Minimum inhibitory concentration 100%
A. furnigatus = experiment: as above; conditions: Aspergillus fumigatus
Candida albicans 64124 = experiment: MIC against fungal strains (Table 1); type: cell-based; conditions: read-out: Minimum inhibitory concentration
Rhodotorula pilimanae = experiment: MIC against fungal strains (Table 1); type: cell-based; conditions: Rhodotorula mucilaginosa, read-out: Minimum inhibitory concentration
Histoplasma capsulatum = experiment: microbe, parasite or virus in culture; type: cell-based; conditions: Histoplasma capsulatum, Table 3, RPMI 0.165M MOPS, 24-72 hours
Coccidioldes sp. = experiment: microbe, parasite or virus in culture; type: cell-based, Coccidioides species; conditions: Coccidioides, Table 3, RPMI 0.165M MOPS, 24-72 hours
Scedosporium = experiment: MIC against various species, CLSI M27 & M38 (Table 4); conditions: Scedosporium
[2] = system: Fusarium graminearum B4-5A; experiment: microbe, parasite or virus in culture; type: cell-based; conditions: Fusarium graminearum, B45A, read-out: Minimum inhibitory concentration
Fusarium = experiment: MIC against various species, CLSI M27 & M38 (Table 4); type: cell-based; conditions: 24-72 hours
Candida albicans MYA2876 = experiment: MIC against fungal strains (Table 1); type: cell-based; conditions: Candida albicans, MYA2876, read-out: Minimum inhibitory concentration
P. variatii = experiment: MIC against filamentous and dimorphic fungi, CLSI M27 & M38 (Table 3); type: cell-based, Paecilomyces variotii; conditions: Paecilomyces variotii, P. variatii MYA-3630, RPMI 0.165M MOPS, 24-72 hours, read-out: Minimum inhibitory concentration 100%

## C[C@@H](c1ncncc1F)[C@](O)(Cn1cncn1)c1ccc(F)cc1F [Voriconazole, reference compound]
L. prolificans
  MIC: > 16 µg/mL
B. dermatitidis; read-out: Minimum inhibitory concentration 100%, B. dermatitidis BD1
  MIC: 0.06 µg/mL (≈ 0.172 µM)
B. dermatitidis; read-out: Minimum inhibitory concentration 100%, B. dermatitidis BD2
  MIC: ≤ 0.03 µg/mL
B. dermatitidis; read-out: Minimum inhibitory concentration 100%, B. dermatitidis BD3
  MIC: 0.125 µg/mL (≈ 0.358 µM)
[1]
  MIC: 0.125 µg/mL (≈ 0.358 µM)
P. variotil
  MIC: 0.125 µg/mL (≈ 0.358 µM)
A. furnigatus; read-out: Minimum inhibitory concentration 100%, A. furnigatus AF1, RPMI 0.165M MOPS, 24-72 hours
  MIC: 1 µg/mL (≈ 2.86 µM)
A. furnigatus; read-out: Minimum inhibitory concentration 100%, A. furnigatus AF2, RPMI 0.165M MOPS, 24-72 hours
  MIC: 8 µg/mL (≈ 22.9 µM)
A. furnigatus; read-out: Minimum inhibitory concentration 100%, A. furnigatus AF3, RPMI 0.165M MOPS, 24-72 hours
  MIC: 4 µg/mL (≈ 11.5 µM)
Candida albicans 64124
  MIC: > 256 µg/mL
Rhodotorula pilimanae
  MIC: 8 µg/mL (≈ 22.9 µM)
Histoplasma capsulatum; read-out: Minimum inhibitory concentration 100%, Histoplasma capsulatum HC1
  MIC: 0.125 µg/mL (≈ 0.358 µM)
Histoplasma capsulatum; read-out: Minimum inhibitory concentration 100%, Histoplasma capsulatum HC2
  MIC: ≤ 0.03 µg/mL
Histoplasma capsulatum; read-out: Minimum inhibitory concentration 100%, Histoplasma capsulatum HC3
  MIC: ≤ 0.03 µg/mL
Coccidioldes sp.; read-out: Minimum inhibitory concentration 100%, Coccidioldes sp. Cocci1
  MIC: 0.25 µg/mL (≈ 0.716 µM)
Coccidioldes sp.; read-out: Minimum inhibitory concentration 100%, Coccidioldes sp. Cocci2
  MIC: 2 µg/mL (≈ 5.73 µM)
Coccidioldes sp.; read-out: Minimum inhibitory concentration 100%, Coccidioldes sp. DI17-143
  MIC: 0.125 µg/mL (≈ 0.358 µM)
Scedosporium; read-out: Minimum inhibitory concentration 100%, Scedosporium SA1, RPMI 0.165M MOPS, 24-72 hours
  MIC: 1 µg/mL (≈ 2.86 µM)
Scedosporium; read-out: Minimum inhibitory concentration 100%, Scedosporium SB1, RPMI 0.165M MOPS, 24-72 hours
  MIC: 2 µg/mL (≈ 5.73 µM)
[2]
  MIC: 32 µg/mL (≈ 91.6 µM)
Fusarium; Fusarium FO1, RPMI 0.165M MOPS, read-out: Minimum inhibitory concentration 100%
  MIC: > 16 µg/mL
Fusarium; Fusarium FO2, RPMI 0.165M MOPS
  Minimum inhibitory concentration 100%: >16 µg/mL
Fusarium; Fusarium FS1, RPMI 0.165M MOPS
  Minimum inhibitory concentration 100%: >16 µg/mL
Candida albicans MYA2876
  MIC: 0.125 µg/mL (≈ 0.358 µM)
P. variatii
  MIC: 0.125 µg/mL (≈ 0.358 µM)
